These results are taken from US11684646B2, “Methods and related compositions for reducing oxidative stress” (Gateway Health Alliances, Inc., priority 2019, dated 2023).

For this experiment, the system named is Aluminum chloride induced neurotoxicity in Wistar rats. The experiment is described as follows: Aluminum chloride induced neurotoxicity in rats: catalase activity in brain. Type of experiment: in vivo. As for the experimental part:
[formula] I.3. Evaluation of Neuro-Protective Effects of the Hydro-Ethanolic Extract of B. toxisperma Against Aluminum Chloride Induced Neurotoxicity (Animal Model of Neurotoxicity)
Twenty albinos Wistar rats weighing between 230-250 g were used for this experiment in which the treatment lasted 3 days. The experimentation was conducted in the animal house of the Laboratory of Nutrition and Nutritional Biochemistry of the department of Biochemistry (Faculty of Science, University of Yaounde I). Animals were fed with standard feed and drinking water ad libitum.
Rats were divided into 5 groups of 4 rats each. A unique dose of 32.5 mg/kg BW of aluminum trichloride (AlCl3) was administered by intra peritoneal (i.p) route. […]
PROTOCOL: The assay tubes contained 100 μL of homogenate or plasma or ovalbumin (caliber) and 3 mL of Biuret's reagent (annex 3c). […] The optical densities were read at 540 nm against a blank which contained 3 mL of reagent solution and 100 μL of NaCl 0.9% incubated under similar conditions. The total protein concentration was determined from the following equation: […]
PRINCIPLE: This method is based on the fact that the catalase present in hemolysates or homogenates reduces hydrogen peroxide (H2O2) to water (H2O) and oxygen (O2). […] Catalase activity is proportional to the optical density and is determined by use of a calibration curve. […]

For the substance Vitamin E, where the note is “HEEBT 150 and 300 mg/kg BW, vitamin E, p<0.05”, the “effect on catalase activity compared with the PC group” value is “significantly (p<0.05) restore”. Further, for the setting “brain of rats, AlCl3 32.5 mg/kg i.p., Vit E 100 mg/kg BW/day (VE100)”, the Catalase is 0.030 ± 0.003 mM H2O2/min/mg of proteins.
